Results on two compounds are retold here after paper PMC9286291, “A new adenine nucleotide transporter located in the ER is essential for maintaining the growth of Toxoplasma gondii” (PLoS Pathogens, 2022).

For one test, the target named is T1, PfANT (Plasmodium falciparum, UniProt Q8IIM9).
T1 construct: gene PF3D7_1113300; expressed in the plasma membrane of intact IPTG-induced E. coli from an encoding plasmid
T1 sequence (Q8IIM9 1-343): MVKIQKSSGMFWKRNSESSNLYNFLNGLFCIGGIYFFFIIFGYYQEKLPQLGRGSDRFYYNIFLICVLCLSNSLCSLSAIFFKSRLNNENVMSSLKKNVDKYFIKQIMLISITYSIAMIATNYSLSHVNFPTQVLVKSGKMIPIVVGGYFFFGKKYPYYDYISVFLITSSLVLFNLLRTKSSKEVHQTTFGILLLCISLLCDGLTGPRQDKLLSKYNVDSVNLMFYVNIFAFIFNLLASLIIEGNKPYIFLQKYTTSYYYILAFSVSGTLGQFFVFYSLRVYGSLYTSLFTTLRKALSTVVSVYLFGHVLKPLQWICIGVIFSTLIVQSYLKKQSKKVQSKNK
Description: inhibition of [α-32P]ATP uptake into intact E. coli cells. The note with it: 25 nM [α-32P]ATP, unlabelled competitor at 100-fold concentration, 15 min, 30 °C, 50 mM potassium phosphate pH 7.0. It counts as cell-based. The source says: inhibition of [α-32P]ATP uptake into intact E. coli cells on PfANT

A further test deals with T2, TgANT (Toxoplasma gondii, UniProt A0A7J6KCX5).
T2 construct: gene TGRH88_003770; codon-optimised CDS in pET16b, expressed in the plasma membrane of intact E. coli BL21 (DE3); HA tag in the IFA construct
T2 sequence (A0A7J6KCX5 1-413): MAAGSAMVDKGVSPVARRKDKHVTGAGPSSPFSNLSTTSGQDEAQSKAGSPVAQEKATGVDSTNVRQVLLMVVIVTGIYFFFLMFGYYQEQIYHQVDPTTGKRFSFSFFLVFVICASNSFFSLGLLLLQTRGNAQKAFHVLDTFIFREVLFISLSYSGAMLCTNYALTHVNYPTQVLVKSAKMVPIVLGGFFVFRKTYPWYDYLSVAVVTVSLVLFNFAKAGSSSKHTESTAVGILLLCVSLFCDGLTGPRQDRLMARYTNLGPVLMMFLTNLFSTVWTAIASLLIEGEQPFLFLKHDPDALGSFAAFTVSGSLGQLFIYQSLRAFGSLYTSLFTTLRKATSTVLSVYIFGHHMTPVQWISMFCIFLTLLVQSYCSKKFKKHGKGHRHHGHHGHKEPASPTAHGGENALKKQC
The test is described as above. It counts as cell-based. Conditions: 25 nM [α-32P]ATP, unlabelled competitor at 100-fold concentration, 15 min, 30 °C, 50 mM potassium phosphate pH 7.0. The source says:
inhibition of [α-32P]ATP uptake into intact E. coli cells on TgANT

Take `Nc1ncnc2c1ncn2[C@@H]1O[C@H](COP(=O)(O)OP(=O)(O)O)[C@@H](O)[C@H]1O` [ADP]: the “Uptake(% of control)” value on PfANT is 28.9 ±3.8 % of control; at TgANT, 3.9 ±0.31 % of control.

As for `Nc1ncnc2c1ncn2[C@@H]1O[C@H](COP(=O)(O)OP(=O)(O)OP(=O)(O)O)[C@@H](O)[C@H]1O` [ATP], the “Uptake(% of control)” value at PfANT was 23.8 ±1.4 % of control; at TgANT, 3.4 ±0.25 % of control.
